From patent US10526319B2, “Halogenated quinazolin-THF-amines as PDE1 inhibitors” (H. Lundbeck A/S, priority 2014, dated 2020)

Experiments:
Type in all cases: biochemical
Settings in all cases: 15 nM tritium labelled cAMP, 1 h at room temperature
[1] = biological target: PDE1B (Homo sapiens, UniProt Q01064); assay: PDE1 inhibition assay (SPA, tritium labelled cAMP), PDE1B
Description: (§1) PDE1A, PDE1B and PDE1C assays were performed as follows: the assays was performed in 60 μL samples containing a fixed amount of the PDE1 enzym1 (sufficient to convert 20-25% of the cyclic nucleotide substrate), a buffer (50 mM HEPES pH 7.6; 10 mM MgCl2; 0.02% Tween20), 0.1 mg/ml BSA, 15 nM tritium labelled cAMP and varying amounts of inhibitors. Reactions were initiated by addition of the cyclic nucleotide substrate, and reactions were allowed to proceed for 1 h at room temperature before being terminated through mixing with 20 μL (0.2 mg) yttrium silicate SPA beads (PerkinElmer). The beads were allowed to settle for 1 h in the dark before the plates were counted in a Wallac 1450 Microbeta counter. The measured signals were converted to activity relative to an uninhibited control (100%) and IC50 values were calculated using XlFit (model 205, IDBS).

[2] = biological target: PDE1A (Homo sapiens, UniProt P54750); assay: PDE1 inhibition assay (SPA, tritium labelled cAMP), PDE1A
Description: as §1

[3] = biological target: PDE1C (Homo sapiens, UniProt Q14123); assay: PDE1 inhibition assay (SPA, tritium labelled cAMP), PDE1C
Description: as §1

PDE1A, sequence (P54750 whole entry): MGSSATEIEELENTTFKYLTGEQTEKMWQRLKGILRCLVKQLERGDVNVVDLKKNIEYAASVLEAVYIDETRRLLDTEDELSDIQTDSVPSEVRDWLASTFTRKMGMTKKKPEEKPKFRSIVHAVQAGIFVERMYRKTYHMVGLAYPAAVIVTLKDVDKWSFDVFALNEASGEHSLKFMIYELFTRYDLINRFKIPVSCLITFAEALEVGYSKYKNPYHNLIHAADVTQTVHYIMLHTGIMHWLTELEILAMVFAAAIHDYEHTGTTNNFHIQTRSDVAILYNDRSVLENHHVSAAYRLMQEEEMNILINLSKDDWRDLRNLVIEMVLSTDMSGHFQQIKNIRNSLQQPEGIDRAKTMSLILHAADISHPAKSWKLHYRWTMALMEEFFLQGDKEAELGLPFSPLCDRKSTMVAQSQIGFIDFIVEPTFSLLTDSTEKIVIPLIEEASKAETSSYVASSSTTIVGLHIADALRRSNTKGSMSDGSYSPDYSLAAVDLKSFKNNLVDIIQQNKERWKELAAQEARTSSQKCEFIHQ
PDE1C, sequence (Q14123 whole entry): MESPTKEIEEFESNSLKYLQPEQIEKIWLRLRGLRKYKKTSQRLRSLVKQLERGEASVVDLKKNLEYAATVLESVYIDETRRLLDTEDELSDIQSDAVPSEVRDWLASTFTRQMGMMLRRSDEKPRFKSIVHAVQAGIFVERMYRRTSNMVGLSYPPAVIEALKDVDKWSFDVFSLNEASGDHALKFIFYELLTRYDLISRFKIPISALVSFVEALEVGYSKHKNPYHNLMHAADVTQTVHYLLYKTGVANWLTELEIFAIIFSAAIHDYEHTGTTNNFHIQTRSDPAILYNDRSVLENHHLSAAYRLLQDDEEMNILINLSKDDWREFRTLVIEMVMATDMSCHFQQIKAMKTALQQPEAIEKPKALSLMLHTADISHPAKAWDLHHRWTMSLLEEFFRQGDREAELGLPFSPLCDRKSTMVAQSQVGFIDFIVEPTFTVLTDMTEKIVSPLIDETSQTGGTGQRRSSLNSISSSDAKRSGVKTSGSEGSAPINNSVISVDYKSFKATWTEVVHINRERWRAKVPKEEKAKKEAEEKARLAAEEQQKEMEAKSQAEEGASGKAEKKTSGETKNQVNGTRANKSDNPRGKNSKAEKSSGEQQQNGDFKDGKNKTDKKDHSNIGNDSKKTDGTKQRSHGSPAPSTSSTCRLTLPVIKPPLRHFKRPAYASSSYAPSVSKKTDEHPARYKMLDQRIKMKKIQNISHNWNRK
PDE1B, sequence (Q01064 whole entry): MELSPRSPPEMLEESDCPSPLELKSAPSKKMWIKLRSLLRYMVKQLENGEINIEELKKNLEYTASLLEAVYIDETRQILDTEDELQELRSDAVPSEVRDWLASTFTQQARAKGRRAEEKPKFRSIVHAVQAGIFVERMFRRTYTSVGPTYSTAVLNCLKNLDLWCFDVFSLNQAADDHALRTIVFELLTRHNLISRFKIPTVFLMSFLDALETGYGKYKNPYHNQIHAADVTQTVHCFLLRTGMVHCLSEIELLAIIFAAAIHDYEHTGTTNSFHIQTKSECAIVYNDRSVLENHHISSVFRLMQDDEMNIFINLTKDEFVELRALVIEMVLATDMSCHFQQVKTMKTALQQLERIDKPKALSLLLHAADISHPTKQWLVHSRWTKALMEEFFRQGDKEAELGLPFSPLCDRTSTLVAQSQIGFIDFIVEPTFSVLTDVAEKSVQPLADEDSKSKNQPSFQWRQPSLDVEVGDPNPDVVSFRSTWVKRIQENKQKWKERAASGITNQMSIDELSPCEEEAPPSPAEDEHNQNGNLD

| SMILES | IC50 [1] [nM] | IC50 [2] [nM] | IC50 [3] [nM] |
| --- | --- | --- | --- |
| COc1ccc2c(N(C)C3(C)CCOC3C)ncnc2c1F (single isomer, unassigned) [19 Stereoisomer 2] | 32 | 185 | 55 |
| COc1ccc2c(NC3(C)CCOC3)ncnc2c1F (single isomer, unassigned) [1 Stereoisomer 1] | 9.9 | 50 | 28 |
| COc1ccc2c(N(C)C3CCOC3C)ncnc2c1F (single isomer, unassigned) [18 Stereoisomer 3] | 47 | 200 | 87 |

More lines, in order of falling IC50 [1], values ahead:

| IC50 [1] [nM] | IC50 [2] [nM] | IC50 [3] [nM] | SMILES |
| --- | --- | --- | --- |
| 70 | 530 | 310 | COc1ccc2c(NC3CCOC3C)ncnc2c1F (single isomer, unassigned) [3 Stereoisomer 3] |
| 40 | 156 | 23 | COc1ccc2c(N3CC[C@@H]4OCCC43)ncnc2c1Cl (single isomer, unassigned) [9 Stereoisomer 1] |
